Target: T1, Human transferrin (Htf) (Homo sapiens, UniProt P02787)
T1 construct: gene TF; single-chain glycoprotein of 679 amino acids (mature plasma protein)
Experiment: intrinsic fluorescence quenching, modified Stern-Volmer
Type: binding
Details: 5 μM protein, sodium phosphate (PBS) buffer, excitation 280 nm, emission 300-400 nm, ligand 1-10 μM from DMSO stock; pH and temperature not given

T1 sequence (P02787 20-698): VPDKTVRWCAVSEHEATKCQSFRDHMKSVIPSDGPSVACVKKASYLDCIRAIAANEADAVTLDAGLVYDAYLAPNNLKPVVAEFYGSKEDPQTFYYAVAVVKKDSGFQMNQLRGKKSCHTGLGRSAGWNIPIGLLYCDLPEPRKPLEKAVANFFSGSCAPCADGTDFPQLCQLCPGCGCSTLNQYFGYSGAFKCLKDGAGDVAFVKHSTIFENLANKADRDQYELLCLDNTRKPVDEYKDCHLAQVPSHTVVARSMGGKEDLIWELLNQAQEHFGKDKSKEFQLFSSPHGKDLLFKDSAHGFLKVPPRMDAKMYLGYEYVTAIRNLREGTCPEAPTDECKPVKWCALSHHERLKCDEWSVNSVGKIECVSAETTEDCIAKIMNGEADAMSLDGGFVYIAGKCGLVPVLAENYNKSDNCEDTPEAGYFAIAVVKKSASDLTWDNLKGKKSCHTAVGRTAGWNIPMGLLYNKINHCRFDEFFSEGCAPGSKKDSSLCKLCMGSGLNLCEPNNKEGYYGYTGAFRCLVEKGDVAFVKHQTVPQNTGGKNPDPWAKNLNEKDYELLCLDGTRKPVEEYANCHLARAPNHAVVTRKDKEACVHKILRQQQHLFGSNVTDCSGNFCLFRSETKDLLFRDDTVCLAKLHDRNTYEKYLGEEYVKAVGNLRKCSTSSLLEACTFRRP

## NCCc1c[nH]c2ccccc12 [Tryptamine]
  K: 480000 M⁻¹

From article PMC11962429, “Unraveling human transferrin-tryptamine interactions: a computational and biophysical approach to Alzheimer’s disease therapeutics” (Frontiers in Pharmacology, 2025)
